{
  "source": "patent US8372955B2",
  "about": "“Purified antibody to the extracellular domain of NKp44L” (Assistance Publique Hopitaux de Paris, priority 2003, dated 2013)",
  "key": {"[1]": {"test_system": "purified CD4+ T cells", "format": "cell-based, human", "conditions": "6-mers peptide, preliminary experiment"}, "[2]": {"test_system": "purified CD4+ T cells", "assay": "NK lysis sensitivity of treated CD4+ T cells, 4-h 51Cr-release assay with activated autologous purified NK cells", "format": "cell-based, human", "conditions": "6-mers peptide, preliminary experiment", "experimental": "NK lines were generated from PBMC, and then purified using the StemSep cell separation system and the NK cell enrichment antibody cocktail (StemCell technologies). NK purified cells were cultured in MyeloCult H5100 medium (StemCell technologies) supplemented with 100 units rhIL-2 (Boheringer). The purity of these preparations was evaluated by flow cytometry after staining with anti-CD3 (BD), anti-CD56 (BD), anti-NKp44, and anti-NKp46 mAbs.\nThe cytololytic activity was assayed in 4-h ^51Cr-release assay as previously described. Briefly, the target cells were labeled for 2-h at 37° C. with 100 μCi per 10^6 cells Na^51Cr (Amersham), and washed twice with culture medium. The target cells were then distributed in round-bottomed 96-well microtiter plates (4×10^3 cells per well), and the effector cells were added at several E/T ratio. The plates were incubated 4-h at 37° C. The supernatant were then collected and ^51Cr-release was measured in a gamma counted. In experiments in which Abs were included, these were added to final concentration of 20 μg/ml. The relative specific ^51Cr-release was calculated as previously described. Values for spontaneous ^51Cr-release, which are deducted in the calculation, were between 10 and 20% of the total incorporated radioactivity. The results are presented after subtraction of the nonspecific lysis obtained with control targets. […]"}},
  "data": [
    {"substance": "H-SWSNKS-OH [NH2-SWSNKS—COOH, NH2-SWSNKS—COOH (SEQ ID NO: 7)]", "values": [
      {"measurement": "Cell surface expression of NKp44L", "setting": "[1]", "value": "any increased"},
      {"measurement": "NK cytotoxic activity", "setting": "[2]", "value": "any increased"}
    ]}
  ]
}
